Article PMC3089805 (Chemmedchem, 2010)
≈ marks a conversion by molar mass, not a printed value.

Tests used:
H. pylori strain 26695 = test: MIC determination, liquid microdilution, H. pylori; assay type: cell-based; details: Helicobacter pylori, 26695, 27 h, read-out: MIC H. pylori
C. jejuni strain H840 = test: MIC determination, liquid microdilution, C. jejuni; assay type: cell-based; details: Campylobacter jejuni, H840, 27 h, read-out: MIC C. jejuni

Row | Structure (SMILES) | MIC (H. pylori strain 26695) | MIC (C. jejuni strain H840)
1 | O=C(CCc1ccccc1)Nc1ncc([N+](=O)[O-])s1 [Analogue 44, N-(5-Nitrothiazol-2-yl)-3-phenylpropanamide] | 21.6 µM (≈ 5.99 µg/mL) | 1.8 µM (≈ 0.499 µg/mL)
2 | O=C(CCCc1ccccc1)Nc1ncc([N+](=O)[O-])s1 [Analogue 45, N-(5-Nitrothiazol-2-yl)-4-phenylbutanamide] | 0.3 µM (≈ 0.0874 µg/mL) | 1.3 µM (≈ 0.379 µg/mL)
3 | O=C(Nc1ncc([N+](=O)[O-])s1)[C@@H]1C[C@H]1c1ccccc1 [Analogue 46, (1R,2R)-N-(5-Nitrothiazol-2-yl)-2-phenylcyclopropanecarboxamide] | 13.8 µM (≈ 3.99 µg/mL) | 2.6 µM (≈ 0.752 µg/mL)
4 | CC1=C(C(=O)Nc2ncc([N+](=O)[O-])s2)Cc2ccccc21 [Analogue 47, 3-Methyl-N-(5-nitrothiazol-2-yl)indene-2-carboxamide] | 1.7 µM (≈ 0.512 µg/mL) | 26.5 µM (≈ 7.99 µg/mL)
5 | CCCC(=O)Nc1ncc([N+](=O)[O-])s1 [Analogue 49, N-(5-Nitrothiazol-2-yl)butyramide] | 3.5 µM (≈ 0.753 µg/mL) | 13.9 µM (≈ 2.99 µg/mL)
6 | CCCCCCCC(=O)Nc1ncc([N+](=O)[O-])s1 [Analogue 51, N-(5-Nitrothiazol-2-yl)octanamide] | 1.4 µM (≈ 0.38 µg/mL) | 5.5 µM (≈ 1.49 µg/mL)
7 | CCCCCCCCCC(=O)Nc1ncc([N+](=O)[O-])s1 [Analogue 52, N-(5-Nitrothiazol-2-yl)decanamide] | 0.8 µM (≈ 0.24 µg/mL) | 107 µM (≈ 32 µg/mL)
8 | O=C(C=Cc1ccccc1)Nc1ncc([N+](=O)[O-])s1 [Analogue 54, N-(5-Nitrothiazol-2-yl)cinnamamide] | 0.3 µM (≈ 0.0826 µg/mL) | 2.7 µM (≈ 0.743 µg/mL)
9 | O=C(/C=C/c1ccc(C(F)(F)F)cc1)Nc1ncc([N+](=O)[O-])s1 [Analogue 55, (E)-N-(5-Nitrothiazol-2-yl)-3-(4-(trifluoromethyl)phenyl)acrylamide] | 0.5 µM (≈ 0.172 µg/mL) | 93.2 µM (≈ 32 µg/mL)
10 | O=C(Nc1ncc([N+](=O)[O-])s1)c1cc(Br)c(Br)o1 [Analogue 63, 4,5-Dibromo-N-(5-nitrothiazol-2-yl)furan-2-carboxamide] | 2.8 µM (≈ 1.11 µg/mL) | 20.2 µM (≈ 8.02 µg/mL)
11 | O=C(Nc1ncc([N+](=O)[O-])s1)c1ccc(-c2ccccc2)o1 [Analogue 65, N-(5-Nitrothiazol-2-yl)-5-phenylfuran-2-carboxamide] | 2.4 µM (≈ 0.757 µg/mL) | 102 µM (≈ 32 µg/mL)
12 | O=C(Nc1ncc([N+](=O)[O-])s1)c1ccc(-c2cccc(Cl)c2)o1 [Analogue 66, 5-(3-Chlorophenyl)-N-(5-nitrothiazol-2-yl)furan-2-carboxamide] | 1.1 µM (≈ 0.385 µg/mL) | 22.9 µM (≈ 8.01 µg/mL)
13 | O=C(Nc1ncc([N+](=O)[O-])s1)c1ccc(-c2cccc(F)c2)o1 [Analogue 67, 5-(3-Fluorophenyl)-N-(5-nitrothiazol-2-yl)furan-2-carboxamide] | 1.5 µM (≈ 0.5 µg/mL) | 24 µM (≈ 8 µg/mL)
14 | O=C(Nc1ncc([N+](=O)[O-])s1)c1ccc(-c2cccc([N+](=O)[O-])c2)o1 [Analogue 69, 5-(3-Nitrophenyl)-N-(5-nitrothiazol-2-yl)furan-2-carboxamide] | 6.9 µM (≈ 2.49 µg/mL) | 16.7 µM (≈ 6.02 µg/mL)
15 | O=C(Nc1ncc([N+](=O)[O-])s1)c1ccc(-c2ccoc2)o1 [Analogue 70, N-(5-Nitrothiazol-2-yl)-2,3′-bifuran-5-carboxamide] | 1.6 µM (≈ 0.488 µg/mL) | 13.1 µM (≈ 4 µg/mL)
16 | O=C(Nc1ncc([N+](=O)[O-])s1)c1ccc(-c2ccsc2)o1 [Analogue 71, N-(5-Nitrothiazol-2-yl)-5-(thiophen-3-yl)furan-2-carboxamide] | 6.2 µM (≈ 1.99 µg/mL) | 99.6 µM (≈ 32 µg/mL)
17 | O=C(Nc1ncc([N+](=O)[O-])s1)c1cc2ccccc2o1 [Analogue 72, N-(5-Nitrothiazol-2-yl)benzofuran-2-carboxamide] | 0.6 µM (≈ 0.174 µg/mL) | 111 µM (≈ 32 µg/mL)
18 | O=C(Nc1ncc([N+](=O)[O-])s1)c1cc2cc([N+](=O)[O-])ccc2o1 [Analogue 73, 5-Nitro-N-(5-nitrothiazol-2-yl)benzofuran-2-carboxamide] | 4.5 µM (≈ 1.5 µg/mL) | 4.5 µM (≈ 1.5 µg/mL)
19 | O=C(Nc1ncc([N+](=O)[O-])s1)c1cc(Cl)sc1Cl [Analogue 75, 2,5-Dichloro-N-(5-nitrothiazol-2-yl)thiophene-3-carboxamide] | 1.5 µM (≈ 0.486 µg/mL) | 2.3 µM (≈ 0.746 µg/mL)
20 | O=C(Nc1ncc([N+](=O)[O-])s1)c1sccc1Cl [Analogue 78, 3-Chloro-N-(5-nitrothiazol-2-yl)thiophene-2-carboxamide] | 5.2 µM (≈ 1.51 µg/mL) | 20.7 µM (≈ 6 µg/mL)
21 | O=C(Nc1ncc([N+](=O)[O-])s1)c1ccc(-c2ccccc2)s1 [Analogue 80, N-(5-Nitrothiazol-2-yl)-5-phenylthiophene-2-carboxamide] | 1.5 µM (≈ 0.497 µg/mL) | 72.4 µM (≈ 24 µg/mL)
22 | O=C(Nc1ncc([N+](=O)[O-])s1)c1ccc(-c2cccc(Cl)c2)s1 [Analogue 81, 5-(3-Chlorophenyl)-N-(5-nitrothiazol-2-yl)thiophene-2-carboxamide] | 0.7 µM (≈ 0.256 µg/mL) | 5.5 µM (≈ 2.01 µg/mL)
23 | O=C(Nc1ncc([N+](=O)[O-])s1)c1ccc(-c2ccsc2)s1 [Analogue 82, N-(5-Nitrothiazol-2-yl)-2,3′-bithiophene-5-carboxamide] | 3 µM (≈ 1.01 µg/mL) | 94.8 µM (≈ 32 µg/mL)
24 | O=C(Nc1ncc([N+](=O)[O-])s1)c1ccc(-c2ccoc2)s1 [Analogue 83, 5-(Furan-3-yl)-N-(5-nitrothiazol-2-yl)thiophene-2-carboxamide] | 7.8 µM (≈ 2.51 µg/mL) | 12.4 µM (≈ 3.98 µg/mL)
